pEC50: −log10 of the molar value.
Key:
[1] = test system: HEK293 stably transfected cell line; test: Intracellular NAD+ change in HEK293 cell line stably expressing probe NADS1.0 (590/440 emitted light ratio); assay type: cell-based; conditions: final concentration 10 nM, 24 h treatment
Protocol: The NAD+ molecular probe provided by the invention can detect changes in the concentration of NAD+ molecules in cells. The coding gene of this probe (NADS1.0) is cloned into the pCDH-CMV-MCS-EF1-Neo vector, and the HEK293 stably transfected cell line is prepared using lentiviral method. […] After 24 h of treatment with the compounds, the DMEM medium (high sugar, phenol red free) is changed to fresh DMEM medium (high sugar, phenol red free, bioluminescent substrate diluted by 1,000-fold) with bioluminescent substrate. The emitted light intensity at 590 nm and 440 nm is measured using Flex Station3 multifunctional microplate reader. According to the detection principle of the probe, the ratio of emitted light intensity at 590 nm and 440 nm indicates the NAD+ concentration in living cells. It is found in the detection that the ratio decreased in cells treated with FK866, indicating a decrease in intracellular NAD+ concentration, while in the NRH-treated cells, the ratio increased, indicating an increase in intracellular NAD+ concentration.

[2] = target: T1, NAD+ probe NADS2.0 (mNeoGreen mutant-LigA mutant-cpNluc mutant fusion), SEQ ID NO. 9; LigA mutant SEQ ID NO. 3 (Enterococcus faecalis, UniProt Q837V6, D286N/K120L/R163D/R68N); test: NAD+ titration of purified BRET probe NADS2.0; assay type: binding; conditions: 515/440 nm light intensity ratio
T1 construct: purified BRET probe NADS2.0
Text: The sequence of NADS^2.0 is shown as SEQ ID NO. 9
mNeoGreen mutant-LigA mutant-cpNluc mutant
The sequence of LigA1 mutant is shown as SEQ ID NO.

[3] = target: T2, NAD+ probe NADS3.0 (mScarlet mutant-LigA mutant-mNeoGreen mutant fusion), SEQ ID NO. 11; LigA mutant 1 SEQ ID NO. 3 (Enterococcus faecalis, UniProt Q837V6, D286N/K120L/R163D/R68N); test: NAD+ titration of purified FRET probe NADS3.0; assay type: binding; conditions: 585/515 nm ratio, excitation 470 nm
T2 construct: purified FRET probe NADS3.0
Text: The sequence of NADS3.0 is shown as SEQ ID NO. 11
mScarlet mutant-LigA mutant-mNeoGreen mutant
The sequence of LigA mutant 1 is shown as SEQ ID NO.

[4] = target: T3, NAD+ probe NADS1.2 (mScarlet mutant-LigA mutant-cpNluc mutant fusion), SEQ ID NO. 7; LigA mutant 1 (DNA ligase LigA mutant), SEQ ID NO. 3 (Enterococcus faecalis, UniProt Q837V6, D286N/K120L/R163D/R68N); test: Response of NAD+ molecular probe NADS1.2 to NAD+ and different NAD+ analogs; assay type: binding; conditions: for dynamic range of probe response / response of probe: NADS1.2, NAD+ analogs, 590/440 nm ratio; for dynamic range of probe response: in words
T3 construct: purified BRET probe NADS1.2

[5] = test system: NAD+ molecular probe NAD1.2; test: Response of NAD+ molecular probe to different NAD+ analogs (590/440 ratio titration); assay type: biochemical; conditions: FIG. 4
Protocol: (2) Add 80 μL of probe solution, 10 μL of NAD+ solution or 10 μL of NAD+ analogs solution, and 10 μL of bioluminescent substrate solution into the white 96-well elisa plate, blowing, suction, and mix immediately several times (at least 8 times) with multi-channel pipette; use Flex Station3 multifunctional microplate reader to read the light intensity values at the wavelengths of 440 nm and 590 nm under the luminescence mode, and monitor the values for 5 min continuously, and the average receptor-to-donor luminescence ratio is calculated for this time period.

T3 sequence (Q837V6 6-317 R68N/K120L/R163D/D286N): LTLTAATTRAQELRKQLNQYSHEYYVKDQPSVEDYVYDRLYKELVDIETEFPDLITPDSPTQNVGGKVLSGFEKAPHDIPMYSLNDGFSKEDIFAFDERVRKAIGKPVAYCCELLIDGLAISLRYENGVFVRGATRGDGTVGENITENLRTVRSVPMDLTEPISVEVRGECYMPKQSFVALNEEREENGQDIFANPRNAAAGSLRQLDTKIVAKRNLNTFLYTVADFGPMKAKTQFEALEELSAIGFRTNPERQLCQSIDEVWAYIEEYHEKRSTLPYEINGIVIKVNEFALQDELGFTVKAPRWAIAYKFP
T2 sequence (Q837V6 6-317 R68N/K120L/R163D/D286N): as above
T1 sequence (Q837V6 6-317 R68N/K120L/R163D/D286N): as above

O=C(/C=C/c1cccnc1)NCCCCC1CCN(C(=O)c2ccccc2)CC1 [FK866]
ratio of emitted light intensity at 590 nm and 440 nm (indicates intracellular NAD+ concentration) [1]: decreased

NC(=O)c1ccc[n+]([C@@H]2O[C@H](COP(=O)([O-])OP(=O)(O)OC[C@H]3O[C@@H](n4cnc5c(N)ncnc54)[C@H](O)[C@@H]3O)[C@@H](O)[C@H]2O)c1 [NAD+]
dynamic range [2]: 1.8 fold
dynamic range [3]: 1.21 fold

NC(=O)C1=CN([C@@H]2O[C@H](COP(=O)(O)OP(=O)(O)OC[C@H]3O[C@@H](n4cnc5c(N)ncnc54)[C@H](O)[C@@H]3O)[C@@H](O)[C@H]2O)C=CC1 [NADH]
pEC50 [4]: < 3.00

NC(=O)c1ccc[n+]([C@@H]2O[C@H](COP(=O)([O-])OP(=O)(O)OC[C@H]3O[C@@H](n4cnc5c(N)ncnc54)[C@H](OP(=O)(O)O)[C@@H]3O)[C@@H](O)[C@H]2O)c1 [NADP+]
dynamic range of the probe response to the analog [5]: small
dynamic range of probe response [4]: small dynamic range

NC(=O)C1=CN([C@@H]2O[C@H](COP(=O)(O)OP(=O)(O)OC[C@H]3O[C@@H](n4cnc5c(N)ncnc54)[C@H](OP(=O)(O)O)[C@@H]3O)[C@@H](O)[C@H]2O)C=CC1 [NADPH]
response of probe [4]: did not respond

NC(=O)c1cccnc1 [NAM]
response of probe [4]: did not respond

NC(=O)c1ccc[n+]([C@@H]2O[C@H](COP(=O)([O-])O)[C@@H](O)[C@H]2O)c1 [NMN]
dynamic range of the probe response to the analog [5]: small
dynamic range of probe response [4]: small dynamic range

— patent US20260275323A1, “FULLY GENETICALLY ENCODED NAD+PROTEIN PROBE BASED ON RESONANCE ENERGY TRANSFER,AND PREPARATION METHOD THEREFOR AND USE THEREOF” (SHENZHEN INSTITUTES OF ADVANCED TECHNOLOGY, priority 2021, published 2026)
